Source: patent US20130197023A1, “NEUROPROTECTION BY PHARMACOLOGICAL CHAPERONING OF NICOTINIC ACETYLCHOLINE RECEPTORS” (priority 2012, published 2013)
Like-named read-outs stand apart in the source and are kept apart here.

How the values were obtained:
ATF6 [1] = details: 24 hr, 0.1 μM nicotine
Method: (§1) Cortical neurons were extracted from day 17 mouse embryos; 150,000 cells were plated in each 35 mm poly-l-lysine-coated glass bottom culture dish in a solution containing Neurobasal, B27, and Glutamax supplemented with 3% equine serum. On day four of culture, neurons were treated with 1 μM cytosine arabinoside. Neurons were maintained via 50% exchange with feeding medium (Neurobasal, B27, and Glutamax) twice per wk. Neurons were transfected five days after plating as follows: 1 μg of each nAChR subunit plasmid was incubated with 20 μg Nupherin Neuron in 400 μl of Neurobasal medium. 10 μL of Lipofectamine 2000 was separately incubated for 15 min in 400 μl Neurobasal medium. The two solutions were combined and incubated for 45 min at room temperature, then applied to cells. After 1 hr incubation, the total medium was replaced with fresh 2 ml medium with or without 0.1 μM nicotine. For immunostaining, cultures were fixed the following day with 4% paraformaldehyde (10 min), permeabilized in 0.02% Tris-buffered saline (TBS)-TritonX (15 min) and blocked in 10% goat serum (30 min). Following 2×TBS washes, the appropriate primary antibody in 1% goat serum was applied overnight at 4° C. The following day cultures were rinsed in TBS, and incubated in 1% goat serum containing secondary antibody (1:5000) (30 min). Cells were rinsed in TBS and imaged immediately.
(§2) Immunostaining employed ATF6 mouse monoclonal (Abcam, 11909, 1:50 dilution), rabbit polyclonal peIF2α and total eIF2α (Cell Signaling Technology, 9721 and 5324, both 1:200 dilution). Alexa 488-labeled secondary antibodies were used (Invitrogen, donkey anti-mouse and goat anti-rabbit).

eIF2α = details: 24 h, 0.1 μM nicotine; for whole cell and cytoplasmic peIF2α fluorescence: p=0.06
Method: as §1, §2

ER exit sites (ERES) = type: cell-based, mouse
Method: (§3) Mouse Neuro-2a cells were cultured using standard tissue culture techniques and maintained in 45% DMEM, 45% OptiMEM and 10% FBS. Plasmid concentrations used for transfection were as follows: 500 ng of each nAChR subunit, 75 ng of pCS2-mcherry, 250 ng of Sec24D constructs, 100 ng of pDsRed2-ER, 250 ng of GaIT-eCFP and 500 ng of ATF6-eGFP. 90,000 cells were plated in poly-D-lysine coated 35 mm MatTek glass bottom imaging dishes. The following day, plasmid DNA was mixed with cationic lipids by adding appropriate DNA concentrations to 4 μl of Expressfect transfection reagent in 200 μl DMEM final volume and incubated for 20 min at room temperature to form cationic lipid-DNA complexes. DMEM+DNA-lipid complexes were added to Neuro-2a cells in 1 ml of DMEM+10% FBS and incubated at 37° C. for 4 h. Dishes were rinsed 2× with DMEM, then filled with 3 ml of DMEM+10% FBS and incubated at 37° C. for 48 h. Nicotine, cytisine or DHβE was added at appropriate concentrations during the change of medium following 4 h incubation with Expressfect-plasmid DNA complexes.
Neuro-2a cells were co-transfected with 500 ng each of α4-mcherry and β2-wt nAChR subunits and 250 ng of the ERES marker, Sec24D-eGFP. Each cell was focused to a plane where the maximum ERES were visualized. Sequential images of eGFP and mcherry fluorescence were obtained and linearly unmixed. For quantification, ERES regions of interest (ROIs) were demarcated using intensity-based thresholding and counted for each cell using the particle analysis feature in ImageJ version 1.44 or later. The fluorescence intensity was obtained for each ERES body within the cells and average ERES intensity was plotted. Error bars for ERES measurements are ±standard error of mean (SEM) and p values are based on a 2-tailed t test.

ATF6 [2] = type: cell-based, mouse
Method: as §3

α4β2 nAChRs = α4β2 nAChRs (Mus musculus, UniProt O70174+Q9ERK7); details: chronic nicotine, 200 nM for 24 hr
Source text: We used superecliptic phluorin (SEP) fused to the C-terminus of alpha4 nicotinic receptors (nAChRs) to examine the subcellular distribution and trafficking dynamics of receptors expressed in cortical neurons. SEP is a pH-sensitive version of green fluorescent protein (GFP) that undergoes 488 nm excitation at neutral pH (˜7.4), but loses this excitation maximum under acidic conditions (12). As a result, SEP neither photobleaches nor fluoresces at low pH but regains its fluorescence at neutral and basic pH. Tagging of α4 on the extracellular C-terminus results in the orientation of SEP on the lumenal side of most organelle types in the secretory pathway. While the endoplasmic reticulum (ER) and cis-Golgi have lumenal pH of ˜7.2 and ˜6.7, respectively, the lumen of both the trans-Golgi network and secretory vesicles is much more acidic (pH<6.5) (39). If one illuminates via total internal reflection (TIRF) microscopy, only those receptors resident in nearly neutral organelles close to the plasma membrane, or inserted in the plasma membrane, are visible within the excitation field. Thus, receptors in the later stages of the secretory pathway neither fluoresce nor photobleach due to the acidic environment. […]

Neuro-2a cells = type: cell-based, mouse
Method: Neuro-2a cells were transfected with α4-eGFP (500 ng)+β2wt (500 ng)+GaIT-mcherry (250 ng) or pDSred2-ER (100 ng) and cells were incubated for 48 h with appropriate concentrations of nicotine, cytisine or DHβE.
In ImageJ, background was subtracted, and DSred2-ER fluorescence was thresholded and demarcated for each cell.

[3] = octanol and water, PubChem Compound; cited from earlier work

Chain of α4β2 nAChRs (O70174 31-629): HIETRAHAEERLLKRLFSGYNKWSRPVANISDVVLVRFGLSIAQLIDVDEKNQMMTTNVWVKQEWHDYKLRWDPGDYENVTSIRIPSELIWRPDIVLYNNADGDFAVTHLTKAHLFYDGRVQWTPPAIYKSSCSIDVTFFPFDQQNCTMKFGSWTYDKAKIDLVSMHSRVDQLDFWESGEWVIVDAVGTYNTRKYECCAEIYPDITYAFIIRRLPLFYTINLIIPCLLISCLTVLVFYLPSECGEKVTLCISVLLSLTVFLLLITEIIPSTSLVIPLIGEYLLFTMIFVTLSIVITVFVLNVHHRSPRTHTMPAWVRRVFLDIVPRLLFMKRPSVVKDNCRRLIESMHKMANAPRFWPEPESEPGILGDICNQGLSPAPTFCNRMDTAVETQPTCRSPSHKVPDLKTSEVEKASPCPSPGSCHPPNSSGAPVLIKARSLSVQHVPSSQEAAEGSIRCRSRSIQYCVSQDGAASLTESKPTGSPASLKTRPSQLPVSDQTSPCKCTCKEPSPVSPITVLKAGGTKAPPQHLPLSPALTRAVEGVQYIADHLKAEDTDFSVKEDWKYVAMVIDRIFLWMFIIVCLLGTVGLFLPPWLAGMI
Chain of α4β2 nAChRs (Q9ERK7 26-501): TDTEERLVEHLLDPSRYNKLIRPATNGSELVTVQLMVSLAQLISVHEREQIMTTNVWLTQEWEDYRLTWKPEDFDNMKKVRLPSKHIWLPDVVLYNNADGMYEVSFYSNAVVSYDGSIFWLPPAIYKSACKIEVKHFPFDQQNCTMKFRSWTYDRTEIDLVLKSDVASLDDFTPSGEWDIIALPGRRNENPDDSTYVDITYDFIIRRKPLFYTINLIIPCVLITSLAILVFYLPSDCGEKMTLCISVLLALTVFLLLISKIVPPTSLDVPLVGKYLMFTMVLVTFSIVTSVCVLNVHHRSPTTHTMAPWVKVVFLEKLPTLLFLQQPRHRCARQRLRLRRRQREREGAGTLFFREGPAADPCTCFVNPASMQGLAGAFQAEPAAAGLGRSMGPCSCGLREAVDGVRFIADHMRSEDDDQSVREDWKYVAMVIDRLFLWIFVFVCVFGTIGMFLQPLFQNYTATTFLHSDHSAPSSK

With CN1CCCC1c1cccnc1 (stereo not drawn) [Nicotine, nicotine] the “reduction in the nucleus to whole cell ATF6 fluorescence ratio” value (ATF6 [1]; compared to untreated cells) was 50%, the “α4-mcherryβ2wt-expressing cells showing nuclear ATF6 localization” value (ATF6 [1]; 56% in the absence of nicotine) was 14% and the “total eIF2α fluorescence within the cytoplasm or nucleus” value (eIF2α) was “did not affect”. The “total eIF2α fluorescence within the cytoplasm or nucleus” value (eIF2α; listed as nicotine) was “without affecting”, the “whole cell and cytoplasmic peIF2α fluorescence” value (eIF2α) was “near significant reduction” and the “whole cell and cytoplasmic peIF2α fluorescence” value (eIF2α; listed as nicotine) was “trend towards reduction”. For the same molecule, the “increase in ERES fluorescence / formation of ERES” value (ER exit sites (ERES)) was ~2 fold, the “reduction in the ratio of nuclear to whole cell ATF6-eGFP fluorescence” value (ATF6 [2]) was ~25% and the “increase in the number of insertion events, α4β2 nAChRs” value (α4β2 nAChRs) was ~2 fold. For the same molecule, the “effect on peripheral ER area (in words)” value (Neuro-2a cells) was “increased”, the “increase in the average ER area” value (Neuro-2a cells) was 1.7 fold and the logP [3] was 1.1.
